The values below come from patent US20240075037A1, “SKIN BARRIER FUNCTION IMPROVING AGENT” (Japan Tobacco Inc., priority 2013, published 2024).

Where two headings read alike, the source gives them in different places.

The subject of experiment [1] is Tape Stripping-treated mouse. Description: NMF production increasing action in Tape Stripping-treated mouse (confocal Raman). It is filed as in vivo. The note with it: 0.5% (w/v) in acetone applied to auricle once a day, one, five and seven days after Tape Stripping, FIGS. 5, 6. The protocol: As an experimental animal, an 8 to 10 weeks old female C57BL/6j mouse {SHIMIZU Laboratory Supplies Co., Ltd.} was used.
The operation of sticking a cellophane adhesive tape {NICHIBAN CO. , Ltd.} on the inner side of the left auricle of the mouse and peeling the tape off <Tape Stripping> was repeated five times to peel off the cuticle. Each 0.02 mL of acetone <Vehicle> or 0.5% (w/v) test substance was applied to the site having undergone the Tape Stripping once a day until the sixth day after the Tape Stripping. On Day 1 of the Tape Stripping, acetone <Vehicle> or a test substance was applied one hour after the Tape stripping. Compound A or monocitrate of Compound B was used as a test substance.
After one, five and seven days from the Tape Stripping, the total NMF amount of the inner side of the left auricle was determined by an in vivo confocal Raman spectrometer {model 3510, River Diagnostics, Inc.}.
A Raman spectrum in the region of 400 to 1800 cm^−1 was measured at an excitation wavelength of 785 nm at intervals of 1 micrometer from the surface of the inner side of the left auricle to the depth of 8 micrometers. A total NMF amount was quantified as an amount per keratin by using Skin Tools 2.0 {River Diagnostics, Inc.}. […] An average value of the total NMF amount was calculated for each measurement depth, and was shown as an individual value at each depth.

For experiment [2], the system named is dry skin model mouse. Description: NMF production in dry skin model mouse (confocal Raman). It is filed as in vivo. The conditions noted are these: dry skin (A/E/W) model mouse, 0.5% (w/v) topical once a day, Day 7; FIG. 11. On the procedure:
(§1) “Production of Dry Skin Model Mouse”
(§2) Using a dry skin model mouse <Non-Patent Literature 12>, the effect of improving the skin barrier function by a JAK inhibitor was evaluated. As an experimental animal, an 8 weeks old female C57BL/6JJmsSlc mouse {Japan SLC, Inc.} was used.
Absorbent cotton dipped in a mixed liquid of acetone and diethyl ether (1:1) was put on the surface of the inner side of the right or both auricles of the mouse for 30 seconds, and then absorbent cotton dipped in water was put on the same region for 30 seconds <hereinafter, abbreviated as an A/E/W treatment>. This treatment was conducted twice a day for seven days for each group to produce a dry skin model. […]
A mouse having undergone the A/E/W treatment on its both auricles was used in the experiment. On Day 7, the total NMF amount of the stratum corneum of both the auricles of the mouse was determined by an in vivo confocal Raman spectrometer {model 3510, River Diagnostics, Inc.} <Compound A administration group and Vehicle group; n=3, respectively>.
A Raman spectrum in the region of 400 to 1800 cm^−1 was measured at an excitation wavelength of 785 nm at intervals of 1 micrometer from the surface of the inner side of the left auricle to the depth of 8 micrometers. A total NMF amount was quantified as an amount per keratin by using Skin Tools 2.0 {River Diagnostics, Inc.}. […]

The subject of experiment [3] is dry skin model mouse. Description: TEWL in dry skin model mouse. It is filed as in vivo. The conditions noted are these: dry skin (A/E/W) model mouse, 0.5% (w/v) topical once a day, Days 0, 1, 3, 4 and 7; FIG. 12. On the procedure:
as §1, §2
Absorbent cotton dipped in a mixed liquid of acetone and diethyl ether (1:1) was put on the surface of the inner side of the right or both auricles of the mouse for 30 seconds, and then absorbent cotton dipped in water was put on the same region for 30 seconds <hereinafter, abbreviated as an A/E/W treatment>. This treatment was conducted twice a day for seven days for each group to produce a dry skin model. The day on which the A/E/W treatment started was taken as Day 0. As a normal control group, a mouse not having undergone the A/E/W treatment was used. […]
A mouse having undergone the A/E/W treatment on its right auricle was used in the experiment. TEWL in the region where the A/E/W treatment had been conducted was measured directly before the A/E/W treatment on Days 0, 1, 3 and 4, and on Day 7 <Compound A administration group and Vehicle group; n=4, respectively>. TEWL was measured by using a water loss measuring device VAPOSCAN AS-VT100RS {ASAHIBIOMED} at room temperatures (23° C. to 26° C.) and a humidity of 40% to 60%. […]

The next experiment relates to JAK. The note with it: cited from earlier work.
Experiment [4] has as its system dry skin model mouse. Description: Profilaggrin mRNA amount in dry skin model mouse (quantitative real-time PCR). The format is in vivo. The note with it: dry skin (A/E/W) model mouse, 0.5% (w/v) topical once a day, Days 0, 3 and 6, ratio to Day 0; FIG. 10. On the procedure:
Experiment 5. Increase in Profilaggrin mRNA Amount, Increase of NMF Production and Acceleration of Reduction in TEWL by JAK Inhibitor in Dry Skin Model Mouse
as §1, §2
Absorbent cotton dipped in a mixed liquid of acetone and diethyl ether (1:1) was put on the surface of the inner side of the right or both auricles of the mouse for 30 seconds, and then absorbent cotton dipped in water was put on the same region for 30 seconds <hereinafter, abbreviated as an A/E/W treatment>. This treatment was conducted twice a day for seven days for each group to produce a dry skin model. The day on which the A/E/W treatment started was taken as Day 0. […]
“Quantitative Real-Time PCR”
A mouse having undergone the A/E/W treatment on its right auricle was used in the experiment. […] The cDNA was analyzed by real-time PCR method <intercalator method> using Light Cycler 480 SYBR Green I Master {Roche Diagnostics K.K.} and Light Cycler 480 II {Roche Diagnostics K.K.}, and the Ct values of mouse profilaggrin and GAPDH were respectively determined. […] A relative mRNA amount of mouse profilaggrin was calculated by comparative Ct method. […]
In general terms: Quantitative PCR measures a nucleic acid by following its amplification.

For experiment [5], the system named is three-dimensional culture skin model TESTSKIN LSE-high. As to the kind of experiment: Increase in protein amount of skin barrier-related protein in three-dimensional culture skin model (Western blotting). The format is cell-based, human. The conditions noted are these: 1000 nmol/L. On the procedure: Experiment 4. Increase in Protein Amount of Skin Barrier-Related Protein by JAK Inhibitor in Three-Dimensional Culture Skin Model
As a three-dimensional cultured skin model, TESTSKIN LSE-high {TOYOBO CO., LTD., TMLSE-013A} was used <Non-Patent Literature 11>. According to the instruction manual of the TESTSKIN LSE-high, the Living Skin Equivalent <LSE> tissue on the Transwell was cultured in an assay medium included in the kit at 37° C. under 5% CO2 for 24 hours.
After removing the medium from the LSE tissue culture system, an assay medium containing Compound A in a final concentration of 1000 nmol/L was added in the presence or absence of human IL-4 and human IL-13 {R&D Systems, Inc.} in a final concentration of 20 ng/mL, respectively, and the LSE tissue was cultured at 37° C. under 5% CO2 for three days. The medium was replaced in the same manner as described above, and the LSE tissue was cultured at 37 ° C. under 5% CO2 for another two days. The skin layer of the LSE tissue was collected in a tube, and 0.1 mL of a 50 mmol/L Tris-HCl (pH 8.0) buffer containing 9 mol/L urea, 2% Triton X-100, protease inhibitor cocktail {Sigma-Aldrich Corporation, P8340} and phosphatase inhibitor cocktail {NACALAI TESQUE, INC., 07575-51} was added, and lysed by ultrasonication. To the tissue lysate, 0.08 mL of laemmli SDS-PAGE sample buffer containing 1.73 mmol/L 2-mercaptoethanol was added, and heated at 95 degrees Celsius for five minutes to thermally denature proteins.
The thermally denatured proteins (0.015 mg/lane) were separated by SDS-polyacrylamide electrophoresis <SDS-PAGE> on 4-12% NuPAGE Bis-Tris gel {Life technologies Corporation}, and filaggrin protein and loricrin protein were detected by Western blotting method. As an internal standard, GAPDH protein was detected. According to ordinary methods, the protein that was separated by SDS-PAGE was blotted on a PVDF membrane {GE Healthcare Ltd.}, and the PVDF membrane was blocked with 5% skim milk {NACALAI TESQUE, INC.}. […] The protein of interest was detected by light exposure to an autoradiography film, Amersham Hyperfilm ECL {GE Healthcare Ltd.} from the PVDF membrane, by using a chemiluminescent substrate {ECL Western Blotting Detection Reagents; GE Healthcare Ltd., RPN2232} according to the instruction manual.

The subject of experiment [6] is contact dermatitis model mouse. As to the kind of experiment: Suppression of ear swelling in contact dermatitis model mouse (DNFB). The format is in vivo. The conditions noted are these: oral 0.3 or 3 mg/mL at 10 mL/Kg once a day, 24 hours from initiation, FIG. 7. The protocol: Using a contact dermatitis model mouse against DNFB <Non-Patent Literature 10>, the ear swelling suppressing action of the JAK inhibitor was evaluated. As an experimental animal, an 8 weeks old female C57BL/6j mouse {SHIMIZU Laboratory Supplies Co., Ltd.} was used.
An abdominal region of the mouse was shaved, and each 0.025 mL of 0.5% (w/v) DNFB {2,4-Dinitrofluorobenzene, Sigma-Aldrich Corporation} diluted with AOO <mixed solution of acetone and olive oil in 4:1> was applied on the abdominal region . After five days, each 0.01 mL of 0.3% (w/v) DNFB diluted with AOO was applied on the front and back of both the auricles of the mouse . For five days from the date of sensitization, 0.5% (w/v) methylcellulose <MC> was administered once a day to the Vehicle group, and 0.3 mg/mL or 3 mg/mL of Compound A suspended in 0.5% (w/v) MC was orally administered to Compound A administration group in a dose of 10 mL/Kg. Each group included three animals. On the days of sensitization and initiation, 0.5% (w/v) MC or Compound A was orally administered one hour before sensitization and initiation.
Before initiation and after 24 hours from initiation, the thickness of each auricle was measured once with a thickness gauge {TECLOCK Corporation}, and an average of the variation from the thickness of each auricle before initiation was taken as an individual value.

Where [7] appears, read: in the absence of IL-4/IL-13, five days.
[8] abbreviates: in the presence of IL-4/IL-13 20 ng/mL, five days, FIG. 8.

In the case of `C[C@@H]1CCN(C(=O)CC#N)C[C@@H]1N(C)c1ncnc2[nH]ccc12` [monocitrate of Compound B, 3-{(3R,4R)-4-methyl-3-[methyl(7H-pyrrolo[2,3-d]pyrimidin-4-yl)amino]piperidin-1-yl}-3-oxopropanenitrile, reference compound], the “total NMF amount (NMF production)” value in experiment [1] is listed as “NMF production increasing action”.

For the compound `C[C@H]1CN(C(=O)CC#N)[C@]12CCN(c1ncnc3[nH]ccc13)C2` [Compound A, 3-[(3S,4R)-3-methyl-6-(7H-pyrrolo[2,3-d]pyrimidin-4-yl)-1,6-diazaspiro[3.4]octan-1-yl]-3-oxopropanenitrile], the “total NMF amount (NMF production)” value (with dry skin model mouse [2]; in experiment [1]) was “NMF production increasing action” in each case. In addition, the “TEWL (transepidermal water loss)” value with dry skin model mouse [3] is reported as “accelerating a reduction in TEWL”. Besides, the JAK inhibition result in the experiment with JAK (stated as known) was “known to inhibit JAK”. In addition, in the experiment on dry skin model mouse [4], the “profilaggrin mRNA amount” value is reported as “increase”. The filaggrin protein amount entry in experiment [5] (setting [7]) and in experiment [5] (setting [8]) was “increase” throughout. The loricrin protein amount entry in experiment [5] (setting [7]) and in experiment [5] (setting [8]) was “increase” each time. Besides, the “ear swelling (auricle thickness variation)” value in experiment [6] is reported as “suppression of ear swelling”.

For `N#CC[C@H](C1CCCC1)n1cc(-c2ncnc3[nH]ccc23)cn1` [Compound C, (3R)-3-cyclopentyl-3-[4-(7H-pyrrolo[2,3-d]pyrimidin-4-yl)-1 H-pyrazol-1-yl]propanenitrile, reference compound], the JAK inhibition entry in the experiment with JAK is recorded as “known to inhibit JAK”.
